How the values were obtained:
[1] = test system: rabbits' vitreous gel; assay: Vitreous gel content by gel-liquid separation of rabbit vitreous samples; assay type: in vivo; settings: 2 or 10 mg/kg/d by gavage for 7 months; compared with non-supplement group, ***p<0.001
Experimental: Fifteen young pigmented rabbits weighing 2.3-4.1 kg and aging 2.5-3 years were used in this experiment. At the onset of the investigation, each eye of every rabbit was examined by slit-lamp biomicroscopy and +60 diopter fundus lens through dilated pupils (2% atropine eye drops) to exclude any preexisting abnormalities. After slit-lamp examination, one drop of 0.5% proparacaine hydrochloride was applied for topic anesthesia, and then 0.1 ml of riboflavin (2×10^^−4 M) was injected through a Millipore filter unit into the central vitreous of both eyes, using a 30-gauge needle. All eyes were then irradiated with white light (1.06×10^15 photons sec-1 cm-2) generated by a carousel slide projector without a lens at a distance of 60 cm for 6 hours. During irradiation, the exposed eyes were frequently treated with topical balanced salt solution (BSS) to prevent corneal drying. Their eyes were examined by using slit-lamp biomicroscopy next day, to confirm if they have serious vitreous liquefaction. […] The weight of the vitreous gel was determined, and its percentage was calculated as follows: vitreous gel (%)=(separated vitreous gel wet wt (g)/initial vitreous wet wt (g))×100%.

[2] = test system: rabbits' vitreous gel; assay: Slit-lamp biomicroscopy of vitreous structure in rabbits with riboflavin/white-light induced vitreous liquefaction; assay type: in vivo, rabbit; settings: 2 or 10 mg/kg/d by gavage once daily for 7 months, especially in higher dose
Experimental: Fifteen young pigmented rabbits weighing 2.3-4.1 kg and aging 2.5-3 years were used in this experiment. At the onset of the investigation, each eye of every rabbit was examined by slit-lamp biomicroscopy and +60 diopter fundus lens through dilated pupils (2% atropine eye drops) to exclude any preexisting abnormalities. After slit-lamp examination, one drop of 0.5% proparacaine hydrochloride was applied for topic anesthesia, and then 0.1 ml of riboflavin (2×10^^−4 M) was injected through a Millipore filter unit into the central vitreous of both eyes, using a 30-gauge needle. All eyes were then irradiated with white light (1.06×10^15 photons sec-1 cm-2) generated by a carousel slide projector without a lens at a distance of 60 cm for 6 hours. During irradiation, the exposed eyes were frequently treated with topical balanced salt solution (BSS) to prevent corneal drying. Their eyes were examined by using slit-lamp biomicroscopy next day, to confirm if they have serious vitreous liquefaction. They were randomly divided into three groups: (1) non-supplement group (Con, n=5); (2) L-ergothioneine supplement group with low dosage (L-ergothioneine, 2 mg/kg/d, n=5); (3) L-ergothioneine supplement group with high dosage (L-ergothioneine, 10 mg/kg/d, n=5). Some […] were administered L-ergothioneine once daily by gavage in normal saline solution for 7 months. […]

[3] = test system: Reactive oxygen species (ROS) of rabbits' lens; assay: Reactive oxygen species quantified by fluorescence spectroscopy using 2',7'-dichlorofluorescein diacetate; assay type: in vivo, rabbit; settings: 2 or 10 mg/kg/d by gavage for 7 months; compared with non-supplement group, ***p<0.001
Experimental: Fifteen young pigmented rabbits weighing 2.3-4.1 kg and aging 2.5-3 years were used in this experiment. At the onset of the investigation, each eye of every rabbit was examined by slit-lamp biomicroscopy and +60 diopter fundus lens through dilated pupils (2% atropine eye drops) to exclude any preexisting abnormalities. After slit-lamp examination, one drop of 0.5% proparacaine hydrochloride was applied for topic anesthesia, and then 0.1 ml of riboflavin (2×10^^−4 M) was injected through a Millipore filter unit into the central vitreous of both eyes, using a 30-gauge needle. All eyes were then irradiated with white light (1.06×10^15 photons sec-1 cm-2) generated by a carousel slide projector without a lens at a distance of 60 cm for 6 hours. During irradiation, the exposed eyes were frequently treated with topical balanced salt solution (BSS) to prevent corneal drying. […]
Antioxidant capacity of the lens was measured using an assay based on the ability of the sample to inhibit the oxidation of 2,2′-azino-di-[3-ethylbenzthiazoline sulfonate]+ (ABTS) by metmyoglobin. The amount of ABTS+ produced was measured in terms of the decrease in absorbance caused by the antioxidants in the sample. Reactive oxygen species (ROS) were quantified by fluorescence spectroscopy using 2′,7′-dichlorofluorescein diacetate.

C[N+](C)(C)[C@@H](Cc1c[nH]c(=S)[nH]1)C(=O)[O-] [L-ergothioneine]
vitreous gel content (%) of the rabbits' eye (FIG. 1) [1]: could alleviate vitreous depolymerization and liquefaction | rabbits' vitreous gel observed microscopically (slit-lamp biomicroscopy) [2]: significantly increased | ROS value of rabbits' lens (FIG. 2) [3]: could scavenge chronic ROS directly and radically

Reference: patent US20250032456A1, “USE OF L-ERGOTHIONEINE TO AMELIORATE AND PREVENT AGE-RELATED VITREOUS DEGENERATION” (NANJING NUTRABUILDING BIO-TECH CO., LTD., priority 2021, published 2025)
